Measured values published in publication PMC7570844, “Skin Damages—Structure Activity Relationship of Benzimidazole Derivatives Bearing a 5-Membered Ring System” (Molecules, 2020).
In brackets after ≈: the same amount, converted by molar mass.

What was measured:
[1] = test system: Microsporum gypseum; experiment: Antidermatophyte plaque growth inhibition; format: cell-based; conditions: Nannizzia gypsea; for inhibition at 100 µg/mL: M. gypseum, '+' has no key, read-out: Percent growth inhibition
[2] = test system: Microsporum canis; experiment: Antidermatophyte plaque growth inhibition; format: cell-based; conditions: for inhibition at 100 µg/mL: M. canis, '+' has no key, read-out: Percent growth inhibition
[3] = test system: Trichophyton mentagrophytes; experiment: Antidermatophyte plaque growth inhibition; format: cell-based; conditions: for inhibition at 100 µg/mL: T. mentagrophytes, '+' has no key, read-out: Percent growth inhibition
[4] = test system: Trichophyton tonsurans; experiment: Antidermatophyte plaque growth inhibition; format: cell-based; conditions: for inhibition at 100 µg/mL: T. tonsurans, '+' has no key, read-out: Percent growth inhibition
[5] = test system: Epidermophyton floccosum; experiment: Antidermatophyte plaque growth inhibition; format: cell-based; conditions: for inhibition at 100 µg/mL: E. floccosum, '+' has no key, read-out: Percent growth inhibition
[6] = test system: herpes simplex virus-1 (KOS); experiment: Antiviral activity in HEL cell cultures (CPE, MTS); format: cell-based; conditions: Human alphaherpesvirus 1, HEL cells
[7] = test system: herpes simplex virus-2 (G); experiment: Antiviral activity in HEL cell cultures (CPE, MTS); format: cell-based; conditions: Human alphaherpesvirus 2; Herpes simplex virus-2, HEL cells
[8] = test system: herpes simplex virus-1 TK-KOS ACVr; experiment: microbe, parasite or virus in culture; format: cell-based; conditions: Human alphaherpesvirus 1, HEL, read-out: Antiviral EC50
[9] = test system: vaccinia virus; experiment: microbe, parasite or virus in culture; format: cell-based; conditions: Orthopoxvirus vaccinia, HEL, read-out: Antiviral EC50
[10] = test system: Adeno virus-2; experiment: Antiviral activity in HEL cell cultures (CPE, MTS); format: cell-based; conditions: Adeno virus-2, HEL cells
[11] = test system: Human Coronavirus (229E); experiment: microbe, parasite or virus in culture; format: cell-based; conditions: HEL, read-out: Antiviral EC50
[12] = test system: vesicular stomatitis virus; experiment: microbe, parasite or virus in culture; format: cell-based; conditions: HeLa, read-out: Antiviral EC50
[13] = test system: Coxsackie virus B4; experiment: Antiviral activity in HeLa cell cultures (CPE, MTS); format: cell-based; conditions: Enterovirus B; Coxsackie virus B4, HeLa cells
[14] = test system: Respiratory syncytial virus; experiment: microbe, parasite or virus in culture; format: cell-based; conditions: human respiratory syncytial virus, HeLa cells, read-out: Antiviral EC50
[15] = test system: human embryonic lung (HEL) cell cultures
[16] = test system: HeLa cell cultures; conditions: human
[17] = DPPH radical scavenging test; conditions: mean ± SEM
[18] = test system: human T-lymphocyte cells (CEM); experiment: Cell proliferation inhibition
[19] = test system: human cervical carcinoma cells (HeLa); experiment: Cell proliferation inhibition
[20] = test system: human pancreatic carcinoma cells (Mia Paca-2); experiment: Cell proliferation inhibition
[21] = test system: human melanoma cells (SK-Mel 5); experiment: Cell proliferation inhibition
[22] = Ferric reducing antioxidant power (FRAP) test; conditions: mean ± SEM
[23] = test system: Candida albicans (ATCC 10231); experiment: Anti-Candida albicans broth microdilution MIC
[24] = test system: HEK293T (Normal Kidney Epithelial Cells); experiment: Cell proliferation inhibition, non-cancer control cells; conditions: Homo sapiens, HEK-293T
[25] = UV filtering parameters of compounds in solution (MeOH, 290-400 nm)
[26] = Candida albicans, ATCC10231, 24 h

Compound | inhibition at 100 µg/mL [1] | inhibition at 100 µg/mL [2] | inhibition at 100 µg/mL [3] | inhibition at 100 µg/mL [4] | inhibition at 100 µg/mL [5] | EC50 [6] | EC50 [7] | EC50 [8] | EC50 [9] | EC50 [10] | EC50 [11] | EC50 [12] | EC50 [13] | EC50 [14] | melting point | Cytotoxic concentration [15] | Cytotoxic concentration [16] | IC50 [18] | IC50 [19] | MIC [23, 26] | other results
O=C(O)c1ccc2nc(-c3ccco3)[nH]c2c1 [Compound 14, 2-(furan-2-yl)-1H-benzimidazole-5-carboxylic Acid] | < 0% | 18.7 ± 0.59% | < 0% | < 0% | 6.45 ± 1.47% | > 100 µM | > 100 µM | > 100 µM | > 100 µM | > 100 µM | > 100 µM | > 100 µM | > 100 µM | > 100 µM | > 250 °C | > 100 µM | > 100 µM | 75 ± 35 µM | > 100 µM | 16 µg/mL (≈ 70.1 µM) | DPPH IC50 [17]: 1416.38 ± 21.40 µg/mL; IC50 [20]: > 100 µM; IC50 [21]: > 100 µM; FRAP [22]: 26.67 ± 2.89 µmolTE/g; IC50 [24]: > 100 µM; SPF [25]: 16.66±1.21; UVA/UVB [25]: 0.5; UVAPF [25]: 1.20±0.10; λc (critical wavelength) [25]: 332 nm
O=C(O)c1ccc2[nH]c(-c3cccs3)nc2c1 [Compound 15, 2-(thiophen-2-yl)-1H-benzimidazole-5-carboxylic Acid] | 2.14 ± 0.59% | 20.3 ± 0.54% | < 0% | 4.48 ± 0.9% | 6.45 ± 2.98% | > 100 µM | > 100 µM | > 100 µM | > 100 µM | > 100 µM | > 100 µM | > 100 µM | > 100 µM | > 100 µM | > 250 °C | > 100 µM | > 100 µM | 50 ± 10 µM | > 100 µM | 16 µg/mL (≈ 65.5 µM) | DPPH (% Inhibition) ([17]; tested at 1 mg/mL): 30.23 ± 1.45%; IC50 [20]: 80 ± 12 µM; IC50 [21]: > 100 µM; FRAP [22]: 181.84 ± 2.66 µmolTE/g; IC50 [24]: > 100 µM; SPF [25]: 6.40±0.12; UVA/UVB [25]: 0.43; UVAPF [25]: 1.42±0.11; λc (critical wavelength) [25]: 342 nm
OC(Cn1cncn1)(Cn1cncn1)c1ccc(F)cc1F [Fluconazole, reference compound] |  |  |  |  |  |  |  |  |  |  |  |  |  |  |  |  |  |  |  | 0.5 µg/mL (≈ 1.63 µM) | IC50 ([1]; M. gypseum growth, read-out: IC50): 18.5 ± 1.23 µg/mL (≈ 60.4 µM); IC50 ([2]; M. canis growth, read-out: IC50): 29.6 ± 1.84 µg/mL (≈ 96.6 µM); IC50 ([3]; T. mentagrophytes growth, read-out: IC50): 3.53 ± 0.26 µg/mL (≈ 11.5 µM); IC50 ([4]; T. tonsurans growth, read-out: IC50): 19.4 ± 0.87 µg/mL (≈ 63.4 µM); IC50 ([5]; E. floccosum growth, read-out: IC50): 0.08 ± 0.005 µg/mL (≈ 0.261 µM); MIC ([23]; 48 h, tested 0.25-128 µg/mL, '-' = no activity): Neither synthesized compounds nor fluconazole showed activity
